Assay results published in ChEMBL document CHEMBL4028817, “Indole-TEMPO conjugates alleviate ischemia-reperfusion injury via attenuation of oxidative stress and preservation of mitochondrial function” (Bioorg Med Chem, 2017).
The source made the active and inactive calls. The calls are words filed in the database; no cut-off is given here.

Tests used:
Mus musculus [1] = assay: Anti-inflammatory activity in ICR mouse assessed as inhibition of xylene induced ear edema at 0.10 mmol/kg pretreated orally for 30 mins followed by xylene challenge measured after 2 hrs relative to control; assay type: functional; details: po
Mus musculus [2] = assay: Anti-inflammatory activity in xylene induced ICR mouse ear edema model assessed as edema weight at 0.10 mmol/kg, po pretreated 30 mins followed by xylene challenge measured after 2 hrs (reference value: 4.07 +/- 0.51 mg); assay type: functional
Mus musculus [3] = assay: Toxicity in mouse assessed as tail bleeding time at 0.50 mmol/kg, po administered 30 mins prior to tail transection measured every 30 secs (reference value: 120.5 +/- 7.9 sec); assay type: organism-based; details: in vivo
Mus musculus [4] = assay: Toxicity in mouse assessed as tail bleeding time at 0.50 mmol/kg, po administered 45 mins prior to tail transection measured every 30 secs (reference value: 119.8 +/- 8.4 sec); assay type: organism-based; details: in vivo
Mus musculus [5] = assay: Toxicity in mouse assessed as tail bleeding time at 0.50 mmol/kg, po administered 60 mins prior to tail transection measured every 30 secs (reference value: 120.4 +/- 7.9 sec); assay type: organism-based; details: in vivo
Mus musculus [6] = assay: Toxicity in mouse assessed as tail bleeding time at 0.50 mmol/kg, po administered 90 mins prior to tail transection measured every 30 secs (reference value: 119.3 +/- 7.7 sec); assay type: organism-based; details: in vivo
HUVEC [7] = assay: Protection against simulated ischemia/reperfusion injury-induced cell death in HUVEC assessed as increase in cell viability at 30 ug/ml treated for 12 hrs under normoxic condition prior to simulated ischemia for 2 hrs followed by compound washout measured 3 hrs post reperfusion; assay type: functional, cell-based; details: Homo sapiens
HUVEC [8] = assay: Protection against simulated ischemia/reperfusion injury induced mitochondrial oxidative damage in HUVEC assessed as decrease in mitochondrial reactive oxygen species level at 30 ug/ml pretreated for 12 hrs followed by compound washout and subsequent ischemia simulation for 2 hrs in presence of compound prior to 3 hrs reperfusion under drug free medium by MitoProbe based confocal microscopic analysis; assay type: functional, cell-based; details: Homo sapiens
HUVEC [9] = assay: Protection against simulated ischemia and reperfusion injury induced mitochondrial oxidative damage in HUVEC assessed as reduction in cytochrome c release at 30 ug/ml treated for 12 hrs under normoxic condition prior to simulated ischemia for 2 hrs followed by compound washout measured 3 hrs post reperfusion by MitoProbe based immuno-fluorescence assay (reference value: 71.2 +/- 4.5%); assay type: functional, Homo sapiens; set-up: scale not given: the % may be the effect or the level left
Rattus norvegicus [10] = assay: (§1) Protection against ischemia/reperfusion induced Wistar rat intestinal injury model assessed as reduction in denudation of villous tips at 30 mg/kg administered as bolus dose pretreated for 5 mins followed by 12 hrs reperfusion and subsequent compound treatment at 10 mg/kg administered at 1 hr interval during reperfusion period by hematoxylin-eosin/trichrome/NADH-diaphorase staining based histopathological analysis; assay type: functional, organism-based
Rattus norvegicus [11] = assay: as §1, with “ischemia/reperfusion-induced” for “ischemia/reperfusion induced”, “well-preserved glandular architecture” for “reduction in denudation of villous tips”, “addition” for “treatment”; assay type: functional, organism-based
Rattus norvegicus [12] = assay: Protection against ischemia/reperfusion-induced Wistar rat intestinal injury model assessed as reduction in lipid peroxidation by measuring lipid peroxide levels at 30 mg/kg administered as bolus dose pretreated for 5 mins followed by 12 hrs reperfusion and subsequent compound addition at 10 mg/kg administered at 1 hr interval during reperfusion period measured at 1.5 to 12 hrs post reperfusion by spectrophotometric method; assay type: functional, organism-based
Rattus norvegicus [13] = assay: Protection against ischemia/reperfusion-induced Wistar rat intestinal injury model assessed as effect on TNFalpha levels at 30 mg/kg administered as bolus dose pretreated for 5 mins followed by 12 hrs reperfusion and subsequent compound addition at 10 mg/kg administered at 1 hr interval during reperfusion period by ELISA (reference value: 62.9 +/- 8.7 pg/ml); assay type: functional
Rattus norvegicus [14] = assay: Protection against ischemia/reperfusion-induced Wistar rat intestinal injury model assessed as reduction in mitochondrial oxidative damage at 30 mg/kg administered as bolus dose pretreated for 5 mins followed by 12 hrs reperfusion and subsequent compound addition at 10 mg/kg administered at 1 hr interval during reperfusion period by Mitoprobe staining based assay; assay type: functional, organism-based
HUVEC [15] = assay: Protection against simulated ischemia/reperfusion injury induced mitochondrial oxidative damage in HUVEC assessed as increase in tubular mitochondrial cells at 30 ug/ml pretreated for 12 hrs followed by compound washout and subsequent ischemia simulation for 2 hrs in presence of compound prior to 3 hrs reperfusion under drug free medium by MitoProbe based confocal microscopic analysis; assay type: functional, cell-based; details: Homo sapiens
Rattus norvegicus [16] = assay: as §1, with “induecd” for “induced”, “decrease” for “reduction”, “mucosal neutrophil infiltration” for “denudation of villous tips”, “addition” for “treatment”; assay type: functional, organism-based
Mus musculus [17] = assay: Anti-inflammatory activity in ICR mouse assessed as inhibition of xylene induced ear edema pretreated orally for 30 mins followed by xylene challenge measured after 2 hrs; assay type: functional
Mus musculus [18] = assay: Anti-inflammatory activity in ICR mouse assessed as inhibition of xylene induced ear edema at 0.02 mmol/kg, po pretreated for 30 mins followed by xylene challenge measured after 2 hrs; assay type: functional, organism-based
Mus musculus [19] = assay: Anti-inflammatory activity in ICR mouse assessed as inhibition of xylene induced ear edema at 20 mg/kg pretreated orally for 30 mins followed by xylene challenge measured after 2 hrs relative to control; assay type: functional; details: po
Mus musculus [20] = assay: Anti-inflammatory activity in xylene induced ICR mouse ear edema model assessed as edema weight at 20 mg/kg, po pretreated 30 mins followed by xylene challenge measured after 2 hrs (reference value: 4.07 +/- 0.51 mg); assay type: functional

| SMILES | inhibition in vivo at 100 µmol/kg (Mus musculus [1]) [%] | Activity (Mus musculus [2]) [mg] | Time (Mus musculus [3]) [s] | Time (Mus musculus [4]) [s] | Time (Mus musculus [5]) [s] | Time (Mus musculus [6]) [s] | Activity (HUVEC [7]) | Activity (HUVEC [8]) | Activity (HUVEC [9]) [%] | Activity (Rattus norvegicus [10]) | Activity (Rattus norvegicus [11]) | Activity (Rattus norvegicus [12]) | Activity (Rattus norvegicus [13]) [pg/mL] | Activity (Rattus norvegicus [14]) | Activity (HUVEC [15]) | Activity (Rattus norvegicus [16]) | inhibition (Mus musculus [17]) | inhibition (Mus musculus [18]) | inhibition in vivo at 20 mg/kg (Mus musculus [19]) [%] | Activity (Mus musculus [20]) [mg] |
| --- | --- | --- | --- | --- | --- | --- | --- | --- | --- | --- | --- | --- | --- | --- | --- | --- | --- | --- | --- | --- |
| CC1(C)CC(n2cc(CNC(=O)CC[C@@H](NC(=O)[C@@H]3Cc4c([nH]c5ccccc45)CN3C(=O)[C@@H]3Cc4c([nH]c5ccccc45)CN3)C(=O)NCc3cn(C4CC(C)(C)N([O])C(C)(C)C4)nn3)nn2)CC(C)(C)N1[O] | 80.3 | 0.8 | 116.6 | 117.1 | 119 | 118.3 | Active | Active | 23.1 | Active | Active | Active | 19 | Active | Active | Active | Dose-dependent effect | Active | – | – |
| CC(=O)Oc1ccccc1C(=O)O [ASPIRIN] | – | – | – | – | – | – | – | – | – | – | – | – | – | – | – | – | – | – | 47.1 | 2.15 |
